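GI50 marks 50% less growth. TGI: concentration producing complete growth inhibition.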
What was measured:
Assay in all cases: NCI tumour cell line growth inhibition, 384-well format
UACC-62 melanoma = tested on: UACC-62 melanoma
NCI-H226 lung = tested on: NCI-H226 lung
SW-620 colon = tested on: SW-620 colon
TK-10 renal = tested on: TK-10 renal
786-0 renal = tested on: 786-0 renal
SNB-19 CNS = tested on: SNB-19 CNS
A549 NSCLC = tested on: A549 NSCLC
SK-MEL-5 melanoma = tested on: SK-MEL-5 melanoma
HOP-62 NSCLC = tested on: HOP-62 NSCLC
RXF 393 renal = tested on: RXF 393 renal
NCI/ADR-RES ovarian = tested on: NCI/ADR-RES ovarian
SN12C renal = tested on: SN12C renal
EKVX NSCLC = tested on: EKVX NSCLC
NCI-H322M lung = tested on: NCI-H322M lung
K-562 leukemia = tested on: K-562 leukemia
UACC-257 melanoma = tested on: UACC-257 melanoma
HS 578T breast = tested on: HS 578T breast
CAKI-1 renal = tested on: CAKI-1 renal
T-47D breast = tested on: T-47D breast
MOLT-4 leukemia = tested on: MOLT-4 leukemia
PC-3 prostate = tested on: PC-3 prostate
HCT-15 colon = tested on: HCT-15 colon
MALME-3M melanoma = tested on: MALME-3M melanoma
MDA-MB-231 breast = tested on: MDA-MB-231 breast
MDA-MB-435 melanoma = tested on: MDA-MB-435 melanoma
NCI-H460 NSCLC = tested on: NCI-H460 NSCLC
MCF7 breast = tested on: MCF7 breast
OVCAR-4 ovarian = tested on: OVCAR-4 ovarian
OVCAR-3 ovarian = tested on: OVCAR-3 ovarian
COLO 205 colon = tested on: COLO 205 colon
HCT-116 colon = tested on: HCT-116 colon
M14 melanoma = tested on: M14 melanoma
HOP-92 NSCLC = tested on: HOP-92 NSCLC
SNB-75 CNS = tested on: SNB-75 CNS
UO-31 renal = tested on: UO-31 renal
A498 renal = tested on: A498 renal
IGROV1 ovarian = tested on: IGROV1 ovarian
HT29 colon = tested on: HT29 colon
BT-549 breast = tested on: BT-549 breast
OVCAR-8 ovarian = tested on: OVCAR-8 ovarian
NCI-H23 lung = tested on: NCI-H23 lung
SF-268 CNS = tested on: SF-268 CNS
HCC-2998 colon = tested on: HCC-2998 colon
SK-OV-3 ovarian = tested on: SK-OV-3 ovarian
SK-MEL-28 melanoma = tested on: SK-MEL-28 melanoma
HL-60(TB) leukemia = tested on: HL-60(TB) leukemia
RPMI-8226 leukemia = tested on: RPMI-8226 leukemia
NCI-H522 lung = tested on: NCI-H522 lung
DU-145 prostate = tested on: DU-145 prostate
MDA-MB-468 breast = tested on: MDA-MB-468 breast
SK-MEL-2 melanoma = tested on: SK-MEL-2 melanoma
OVCAR-5 ovarian = tested on: OVCAR-5 ovarian
ACHN renal = tested on: ACHN renal
SF-295 CNS = tested on: SF-295 CNS
CCRF-CEM leukemia = tested on: CCRF-CEM leukemia
SF-539 CNS = tested on: SF-539 CNS
LOX IMVI melanoma = tested on: LOX IMVI melanoma
U251 glioblastoma = tested on: U251 glioblastoma
KM12 colon = tested on: KM12 colon

With `NC(=O)c1cccc2c(N[C@H](CN3CCC3)c3ccc(Cl)c(C(F)(F)F)c3)ncnc12` the GI50 (UACC-62 melanoma) was 980 nM, the TGI (UACC-62 melanoma) was 2210 nM and the GI50 (NCI-H226 lung) was 2350 nM. For the same molecule, the TGI (NCI-H226 lung) was 8740 nM, the GI50 (SW-620 colon) was 1860 nM and the TGI (SW-620 colon) was 7730 nM. For the same molecule, the GI50 (TK-10 renal) was 1250 nM, the TGI (TK-10 renal) was 3180 nM and the GI50 ([…]-0 renal) was 482 nM. The TGI (786-0 renal) was 1940 nM, the GI50 (SNB-19 CNS) was 1730 nM and the TGI (SNB-19 CNS) was 5200 nM. For the same molecule, the GI50 (A549 NSCLC) was 1510 nM, the TGI (A549 NSCLC) was 6390 nM and the GI50 (SK-MEL-5 melanoma) was 1380 nM. It also gave a TGI (SK-MEL-5 melanoma) of 2690 nM, a GI50 (HOP-62 NSCLC) of 3320 nM and a TGI (HOP-62 NSCLC) of 12000 nM. For the same molecule, the GI50 (RXF 393 renal) was 231 nM, the TGI (RXF 393 renal) was 1340 nM and the GI50 (NCI/ADR-RES ovarian) was 2790 nM. It also gave a TGI (NCI/ADR-RES ovarian) of 10300 nM, a GI50 (SN12C renal) of 2100 nM and a TGI (SN12C renal) of 12600 nM. For the same molecule, the GI50 (EKVX NSCLC) was 1150 nM, the TGI (EKVX NSCLC) was 5010 nM and the GI50 (NCI-H322M lung) was 3100 nM. For the same molecule, the TGI (NCI-H322M lung) was 14400 nM, the GI50 (K-562 leukemia) was 1640 nM and the TGI (K-562 leukemia) was 3200 nM. The GI50 (UACC-257 melanoma) was 1020 nM, the TGI (UACC-257 melanoma) was 2190 nM and the GI50 (HS 578T breast) was 750 nM. It also gave a TGI (HS 578T breast) of 2350 nM, a GI50 (CAKI-1 renal) of 1290 nM and a TGI (CAKI-1 renal) of 3650 nM. It also gave a GI50 (T-47D breast) of 199 nM, a TGI (T-47D breast) of 1390 nM and a GI50 (MOLT-4 leukemia) of 88.2 nM. It also gave a TGI (MOLT-4 leukemia) of 718 nM, a GI50 (PC-3 prostate) of 345 nM and a TGI (PC-3 prostate) of 3850 nM. The GI50 (HCT-15 colon) was 1190 nM, the TGI (HCT-15 colon) was 8430 nM and the GI50 (MALME-3M melanoma) was 457 nM. For the same molecule, the TGI (MALME-3M melanoma) was 1710 nM, the GI50 (MDA-MB-231 breast) was 2720 nM and the TGI (MDA-MB-231 breast) was 13700 nM. It also gave a GI50 (MDA-MB-435 melanoma) of 1320 nM, a TGI (MDA-MB-435 melanoma) of 5510 nM and a GI50 (NCI-H460 NSCLC) of 366 nM. For the same molecule, the TGI (NCI-H460 NSCLC) was 2400 nM, the GI50 (MCF7 breast) was 362 nM and the TGI (MCF7 breast) was 1860 nM. The GI50 (OVCAR-4 ovarian) was 3020 nM, the TGI (OVCAR-4 ovarian) was 12000 nM and the GI50 (OVCAR-3 ovarian) was 2720 nM. The TGI (OVCAR-3 ovarian) was 11200 nM, the GI50 (COLO 205 colon) was 951 nM and the TGI (COLO 205 colon) was 2160 nM. For the same molecule, the GI50 (HCT-116 colon) was 1800 nM, the TGI (HCT-116 colon) was 5390 nM and the GI50 (M14 melanoma) was 1210 nM. The TGI (M14 melanoma) was 2480 nM, the GI50 (HOP-92 NSCLC) was 1320 nM and the TGI (HOP-92 NSCLC) was 3350 nM. It also gave a GI50 (SNB-75 CNS) of 258 nM, a TGI (SNB-75 CNS) of 1570 nM and a GI50 (UO-31 renal) of 1580 nM. For the same molecule, the TGI (UO-31 renal) was 9030 nM, the GI50 (A498 renal) was 138 nM and the TGI (A498 renal) was 1520 nM. For the same molecule, the GI50 (IGROV1 ovarian) was 247 nM, the TGI (IGROV1 ovarian) was 1880 nM and the GI50 (HT29 colon) was 1400 nM. For the same molecule, the TGI (HT29 colon) was 2980 nM, the GI50 (BT-549 breast) was 316 nM and the TGI (BT-549 breast) was 1520 nM. It also gave a GI50 (OVCAR-8 ovarian) of 2560 nM, a TGI (OVCAR-8 ovarian) of 11200 nM and a GI50 (NCI-H23 lung) of 1730 nM. For the same molecule, the TGI (NCI-H23 lung) was 6240 nM, the GI50 (SF-268 CNS) was 1480 nM and the TGI (SF-268 CNS) was 4200 nM. It also gave a GI50 (HCC-2998 colon) of 1040 nM, a TGI (HCC-2998 colon) of 2230 nM and a GI50 (SK-OV-3 ovarian) of 430 nM. It also gave a TGI (SK-OV-3 ovarian) of 2910 nM, a GI50 (SK-MEL-28 melanoma) of 1260 nM and a TGI (SK-MEL-28 melanoma) of 2690 nM. For the same molecule, the GI50 (HL-60(TB) leukemia) was 1560 nM, the TGI (HL-60(TB) leukemia) was 2910 nM and the GI50 (RPMI-8226 leukemia) was 1200 nM. For the same molecule, the TGI (RPMI-8226 leukemia) was 2450 nM, the GI50 (NCI-H522 lung) was 1190 nM and the TGI (NCI-H522 lung) was 5700 nM. The GI50 (DU-145 prostate) was 2630 nM, the TGI (DU-145 prostate) was 13800 nM and the GI50 (MDA-MB-468 breast) was 256 nM. For the same molecule, the TGI (MDA-MB-468 breast) was 1250 nM, the GI50 (SK-MEL-2 melanoma) was 1310 nM and the TGI (SK-MEL-2 melanoma) was 2660 nM. The GI50 (OVCAR-5 ovarian) was 2790 nM, the TGI (OVCAR-5 ovarian) was 11200 nM and the GI50 (ACHN renal) was 1950 nM. For the same molecule, the TGI (ACHN renal) was 12200 nM, the GI50 (SF-295 CNS) was 1020 nM and the TGI (SF-295 CNS) was 3220 nM. For the same molecule, the GI50 (CCRF-CEM leukemia) was 410 nM, the TGI (CCRF-CEM leukemia) was 1750 nM and the GI50 (SF-539 CNS) was 195 nM. It also gave a TGI (SF-539 CNS) of 1630 nM, a GI50 (LOX IMVI melanoma) of 2180 nM and a TGI (LOX IMVI melanoma) of 7000 nM. It also gave a GI50 (U251 glioblastoma) of 1890 nM, a TGI (U251 glioblastoma) of 10400 nM and a GI50 (KM12 colon) of 920 nM. It also gave a TGI (KM12 colon) of 6880 nM.
